Assay results: PubChem BioAssay (NCI)
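Assay format: 96-well plates, 48-hour exposure. GI50 = concentration required for 50% inhibition of growth. TGI: concentration producing complete growth inhibition.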

Tests used:
Assay in all cases: NCI tumour cell line growth inhibition, 48 h
[1] = test system: HCC-2998 colon
[2] = test system: MOLT-4 leukemia
[3] = test system: HS 578T breast
[4] = test system: SW-620 colon
[5] = test system: IGROV1 ovarian
[6] = test system: SF-539 CNS
[7] = test system: HOP-62 NSCLC
[8] = test system: ACHN renal
[9] = test system: A549 NSCLC
[10] = test system: TK-10 renal
[11] = test system: BT-549 breast
[12] = test system: NCI/ADR-RES ovarian
[13] = test system: OVCAR-5 ovarian
[14] = test system: 786-0 renal
[15] = test system: K-562 leukemia
[16] = test system: PC-3 prostate
[17] = test system: UO-31 renal
[18] = test system: SN12C renal
[19] = test system: SNB-19 CNS
[20] = test system: OVCAR-4 ovarian
[21] = test system: MDA-MB-231 breast
[22] = test system: EKVX NSCLC
[23] = test system: M14 melanoma
[24] = test system: SK-MEL-5 melanoma
[25] = test system: NCI-H226 lung
[26] = test system: SK-MEL-2 melanoma
[27] = test system: SF-295 CNS
[28] = test system: NCI-H522 lung
[29] = test system: HT29 colon
[30] = test system: MDA-MB-435
[31] = test system: NCI-H460 lung
[32] = test system: MALME-3M melanoma
[33] = test system: DU-145 prostate
[34] = test system: SK-MEL-28 melanoma
[35] = test system: CCRF-CEM leukemia
[36] = test system: HL-60(TB) leukemia
[37] = test system: CAKI-1 renal
[38] = test system: OVCAR-3 ovarian
[39] = test system: UACC-62 melanoma
[40] = test system: KM12 colon
[41] = test system: LOX IMVI melanoma
[42] = test system: RPMI-8226 leukemia
[43] = test system: UACC-257 melanoma
[44] = test system: OVCAR-8 ovarian
[45] = test system: COLO 205 colon
[46] = test system: SK-OV-3 ovarian
[47] = test system: SNB-75 CNS
[48] = test system: HCT-15 colon
[49] = test system: U251 CNS
[50] = test system: SR leukemia
[51] = test system: HOP-92 NSCLC
[52] = test system: HCT-116 colon
[53] = test system: NCI-H23 lung
[54] = test system: MCF7 breast
[55] = test system: A498 renal
[56] = test system: RXF 393 renal
[57] = test system: SF-268 CNS
[58] = test system: T-47D breast

What does the source list for `COc1ccc(C2C(C#N)=C(N)Oc3c2sc2c(C)cccc32)cc1` (stereo unspecified)?
GI50 [1]: 1030 nM; TGI [1]: 7390 nM; GI50 [2]: 524 nM; TGI [2]: 9430 nM; GI50 [3]: 300 nM; TGI [3]: 2280 nM; GI50 [4]: 441 nM; TGI [4]: 16200 nM; GI50 [5]: 449 nM; TGI [5]: 14500 nM; GI50 [6]: 297 nM; TGI [6]: 1240 nM; GI50 [7]: 544 nM; TGI [7]: 20800 nM; GI50 [8]: 757 nM; TGI [8]: 14700 nM; GI50 [9]: 724 nM; TGI [9]: 21600 nM; GI50 [10]: 9490 nM; TGI [10]: 34200 nM; GI50 [11]: 956 nM; TGI [11]: 7830 nM; GI50 [12]: 332 nM; TGI [12]: 5750 nM; GI50 [13]: 636 nM; TGI [13]: 14200 nM; GI50 [14]: 621 nM; TGI [14]: 14600 nM; GI50 [15]: 119 nM; TGI [15]: > 100000 nM; GI50 [16]: 346 nM; TGI [16]: 13000 nM; GI50 [17]: 340 nM; TGI [17]: 13500 nM; GI50 [18]: 578 nM; TGI [18]: 11300 nM; GI50 [19]: 520 nM; TGI [19]: 15200 nM; GI50 [20]: 2240 nM; TGI [20]: 22500 nM; GI50 [21]: 1220 nM; TGI [21]: 10600 nM; GI50 [22]: 677 nM; TGI [22]: 21300 nM; GI50 [23]: 304 nM; TGI [23]: 13400 nM; GI50 [24]: 427 nM; TGI [24]: 13200 nM; GI50 [25]: 590 nM; TGI [25]: 15800 nM; GI50 [26]: 3330 nM; TGI [26]: 26500 nM; GI50 [27]: 293 nM; TGI [27]: 2400 nM; GI50 [28]: 369 nM; TGI [28]: 6010 nM; GI50 [29]: 816 nM; TGI [29]: 12700 nM; GI50 [30]: 188 nM; TGI [30]: 441 nM; GI50 [31]: 384 nM; TGI [31]: 10600 nM; GI50 [32]: 431 nM; TGI [32]: 21000 nM; GI50 [33]: 596 nM; TGI [33]: 18600 nM; GI50 [34]: 3830 nM; TGI [34]: 21700 nM; GI50 [35]: 341 nM; TGI [35]: > 64800 nM; GI50 [36]: 230 nM; TGI [36]: 1060 nM; GI50 [37]: 381 nM; TGI [37]: 16700 nM; GI50 [38]: 414 nM; TGI [38]: 12800 nM; GI50 [39]: 375 nM; TGI [39]: 11900 nM; GI50 [40]: 460 nM; TGI [40]: 14500 nM; GI50 [41]: 592 nM; TGI [41]: 10800 nM; GI50 [42]: 384 nM; TGI [42]: 5530 nM; GI50 [43]: 14300 nM; TGI [43]: 42100 nM; GI50 [44]: 547 nM; TGI [44]: 17400 nM; GI50 [45]: 933 nM; TGI [45]: 8680 nM; GI50 [46]: 613 nM; TGI [46]: 41700 nM; GI50 [47]: 221 nM; TGI [47]: 709 nM; GI50 [48]: 408 nM; TGI [48]: 7320 nM; GI50 [49]: 489 nM; TGI [49]: 16000 nM; GI50 [50]: 215 nM; TGI [50]: 15000 nM; GI50 [51]: 1130 nM; TGI [51]: 11100 nM; GI50 [52]: 362 nM; TGI [52]: 6960 nM; GI50 [53]: 474 nM; TGI [53]: 12800 nM; GI50 [54]: 322 nM; TGI [54]: 12200 nM; GI50 [55]: 199 nM; TGI [55]: 772 nM; GI50 [56]: 234 nM; TGI [56]: 628 nM; GI50 [57]: 1200 nM; TGI [57]: 21600 nM; GI50 [58]: 552 nM; TGI [58]: 43700 nM
